Drawing on ChEMBL document CHEMBL5329165, “Design, synthesis and biological evaluation of phenanthridine amide and 1,2,3-triazole analogues against Mycobacterium tuberculosis” (RSC Med Chem, 2023), this text covers MIC for 1 compound.

The test system of this test is Mycobacterium tuberculosis. Kind of test: Antimycobacterial activity against Mycobacterium tuberculosis H37Ra transformed with pSMT1 luciferase reporter plasmid incubated for 7 days by luminometric assay. The note with it: 168 h, time 7 day. Type of test: functional. For orientation: A reporter such as luciferase makes a cellular process visible.

Converted amounts (≈) assume the structure as drawn.

A word on the MIC: it is the lowest concentration that inhibits growth of the organism. The compound `O=C(Nc1ccc(N2CCN(C(=O)c3cnccn3)CC2)nc1)c1ccccc1` showed an MIC of 1.46 µM (≈ 0.567 µg/mL).
